Literature values, collected in patent US7087617B2, “Substituted pyrimidine derivatives” (Pfizer Inc., priority 2003, dated 2006).

Settings: for effect on the "anxiogenic" effects / actions of CRF in the conflict test: rats, CRF-induced effects

Structure (SMILES)	effect on the "anxiogenic" effects / actions of CRF in the conflict test	behavioral activity alone in the operant conflict test (compound alone, without CRF)
CNC(=O)c1cc2c(cn1)[nH]c1ccccc12 [FG 7142]	enhanced the actions of CRF	
CCOC(=O)c1ncn2c1CN(C)C(=O)c1cc(F)ccc1-2 [Ro 15-1788]	reversed the effects of CRF in a dose-dependent manner	without behavioral activity alone
